Where a name gives a salt, the structure may show the parent alone.
melting point	Structure (SMILES)
196 to 198 °C	CC(C)(C)c1ccc(C(=O)Nc2ccccc2NC(=O)c2cccc(C(=N)N)c2)cc1.Cl
163 to 165 °C	CCOc1ccc(C(=O)Nc2ccccc2NC(=O)c2cccc(C(=N)N)c2)cc1 [Example 38, N^1-[3-(amino(imino)methyl)benzoyl]-N^2-(4-ethoxybenzoyl)-1,2-benzenediamine]
227 to 229 °C	CC(C)c1ccc(C(=O)Nc2ccccc2NC(=O)c2cccc(C(=N)N)c2)cc1.Cl
194 to 196 °C	CC(C)(C)c1ccc(C(=O)Nc2ccccc2C(=O)Nc2cccc(C(=N)N)c2)cc1.Cl
163 to 167 °C	COc1ccc(NC(=O)c2ccccc2NC(=O)c2cccc(C(=N)N)c2)cc1 (as salt: salt) [Example 12, 2-[3-(amino(imino)methyl)benzoylamino]-N-(4-methoxyphenyl)benzamide]
